Results published in ChEMBL document CHEMBL1150850, “Cytotoxic principles from Ventilago leiocarpa” (J Nat Prod, 2001).

Legend:
Calu-1 [1] = assay: Growth inhibition of human Calu1 cells assessed as [3H]thymidine incorporation at 100 uM after 3 days by scintillation counting; assay type: functional; conditions: read-out: GI
Calu-1 [2] = assay: Growth inhibition of human Calu1 cells assessed as [3H]thymidine incorporation at 50 uM after 3 days by scintillation counting; assay type: functional; conditions: read-out: GI
Calu-1 [3] = assay: Growth inhibition of human Calu1 cells assessed as [3H]thymidine incorporation at 25 uM after 3 days by scintillation counting; assay type: functional; conditions: read-out: GI
Calu-1 [4] = assay: Growth inhibition of human Calu1 cells assessed as [3H]thymidine incorporation at 12.5 uM after 3 days by scintillation counting; assay type: functional; conditions: read-out: GI
Calu-1 [5] = assay: Growth inhibition of human Calu1 cells assessed as [3H]thymidine incorporation at 6.25 uM after 3 days by scintillation counting; assay type: functional; conditions: read-out: GI
Calu-1 [6] = assay: Inhibition of human Calu1 cell proliferation assessed as [3H]thymidine incorporation after 3 days by scintillation counting; assay type: functional, cell-based
HeLa [7] = assay: Growth inhibition of human HeLa cells assessed as [3H]thymidine incorporation at 100 uM after 3 days by scintillation counting; assay type: functional; conditions: read-out: GI
HeLa [8] = assay: Growth inhibition of human HeLa cells assessed as [3H]thymidine incorporation at 50 uM after 3 days by scintillation counting; assay type: functional; conditions: read-out: GI
HeLa [9] = assay: Growth inhibition of human HeLa cells assessed as [3H]thymidine incorporation at 25 uM after 3 days by scintillation counting; assay type: functional; conditions: read-out: GI
HeLa [10] = assay: Growth inhibition of human HeLa cells assessed as [3H]thymidine incorporation at 12.5 uM after 3 days by scintillation counting; assay type: functional; conditions: read-out: GI
HeLa [11] = assay: Growth inhibition of human HeLa cells assessed as [3H]thymidine incorporation at 6.25 uM after 3 days by scintillation counting; assay type: functional; conditions: read-out: GI
HeLa [12] = assay: Inhibition of human HeLa cell proliferation assessed as [3H]thymidine incorporation after 3 days by scintillation counting; assay type: functional, cell-based
K562 [13] = assay: Growth inhibition of human K562 cells assessed as [3H]thymidine incorporation at 100 uM after 3 days by scintillation counting; assay type: functional; conditions: read-out: GI
K562 [14] = assay: Inhibition of human K562 cell proliferation assessed as [3H]thymidine incorporation after 3 days by scintillation counting; assay type: functional, cell-based
Raji [15] = assay: Growth inhibition of human Raji cells assessed as [3H]thymidine incorporation at 100 uM after 3 days by scintillation counting; assay type: functional; conditions: read-out: GI
Raji [16] = assay: Growth inhibition of human Raji cells assessed as [3H]thymidine incorporation at 50 uM after 3 days by scintillation counting; assay type: functional; conditions: read-out: GI
Raji [17] = assay: Growth inhibition of human Raji cells assessed as [3H]thymidine incorporation at 25 uM after 3 days by scintillation counting; assay type: functional; conditions: read-out: GI
Raji [18] = assay: Growth inhibition of human Raji cells assessed as [3H]thymidine incorporation at 12.5 uM after 3 days by scintillation counting; assay type: functional; conditions: read-out: GI
Raji [19] = assay: Growth inhibition of human Raji cells assessed as [3H]thymidine incorporation at 6.25 uM after 3 days by scintillation counting; assay type: functional; conditions: read-out: GI
Raji [20] = assay: Inhibition of human Raji cell proliferation assessed as [3H]thymidine incorporation after 3 days by scintillation counting; assay type: functional, cell-based
[21] = Growth inhibition of african green monkey Vero cells assessed as [3H]thymidine incorporation at 100 uM after 3 days by scintillation counting; assay type: cell-based; conditions: chlorocebus sabaeus, read-out: GI
[22] = Growth inhibition of african green monkey Vero cells assessed as [3H]thymidine incorporation at 50 uM after 3 days by scintillation counting; assay type: cell-based; conditions: chlorocebus sabaeus, read-out: GI
[23] = Growth inhibition of african green monkey Vero cells assessed as [3H]thymidine incorporation at 25 uM after 3 days by scintillation counting; assay type: cell-based; conditions: chlorocebus sabaeus, read-out: GI
Vero [24] = assay: Growth inhibition of african green monkey Vero cells assessed as [3H]thymidine incorporation at 12.5 uM after 3 days by scintillation counting; assay type: cell-based; conditions: chlorocebus sabaeus, 72 h
[25] = Growth inhibition of african green monkey Vero cells assessed as [3H]thymidine incorporation at 6.25 uM after 3 days by scintillation counting; assay type: cell-based; conditions: chlorocebus sabaeus, read-out: GI
Vero [26] = assay: Inhibition of african green monkey Vero cell proliferation assessed as [3H]thymidine incorporation after 3 days by scintillation counting; assay type: cell-based; conditions: Chlorocebus sabaeus
WISH [27] = assay: Growth inhibition of human WISH cells assessed as [3H]thymidine incorporation at 100 uM after 3 days by scintillation counting; assay type: functional; conditions: read-out: GI
WISH [28] = assay: Growth inhibition of human WISH cells assessed as [3H]thymidine incorporation at 50 uM after 3 days by scintillation counting; assay type: functional; conditions: read-out: GI
WISH [29] = assay: Growth inhibition of human WISH cells assessed as [3H]thymidine incorporation at 25 uM after 3 days by scintillation counting; assay type: functional; conditions: read-out: GI
WISH [30] = assay: Growth inhibition of human WISH cells assessed as [3H]thymidine incorporation at 12.5 uM after 3 days by scintillation counting; assay type: functional; conditions: read-out: GI
WISH [31] = assay: Growth inhibition of human WISH cells assessed as [3H]thymidine incorporation at 6.25 uM after 3 days by scintillation counting; assay type: functional; conditions: read-out: GI
WISH [32] = assay: Inhibition of human WISH cell proliferation assessed as [3H]thymidine incorporation after 3 days by scintillation counting; assay type: functional, cell-based
Calu-1 [33] = assay: Growth inhibition of human Calu1 cells assessed as [3H]thymidine incorporation at 3.125 uM after 3 days by scintillation counting; assay type: functional; conditions: read-out: GI
HeLa [34] = assay: Growth inhibition of human HeLa cells assessed as [3H]thymidine incorporation at 3.125 uM after 3 days by scintillation counting; assay type: functional; conditions: read-out: GI
K562 [35] = assay: Growth inhibition of human K562 cells assessed as [3H]thymidine incorporation at 50 uM after 3 days by scintillation counting; assay type: functional; conditions: read-out: GI
K562 [36] = assay: Growth inhibition of human K562 cells assessed as [3H]thymidine incorporation at 25 uM after 3 days by scintillation counting; assay type: functional; conditions: read-out: GI
K562 [37] = assay: Growth inhibition of human K562 cells assessed as [3H]thymidine incorporation at 12.5 uM after 3 days by scintillation counting; assay type: functional; conditions: read-out: GI
K562 [38] = assay: Growth inhibition of human K562 cells assessed as [3H]thymidine incorporation at 6.25 uM after 3 days by scintillation counting; assay type: functional; conditions: read-out: GI
K562 [39] = assay: Growth inhibition of human K562 cells assessed as [3H]thymidine incorporation at 3.125 uM after 3 days by scintillation counting; assay type: functional; conditions: read-out: GI
Raji [40] = assay: Growth inhibition of human Raji cells assessed as [3H]thymidine incorporation at 3.125 uM after 3 days by scintillation counting; assay type: functional; conditions: read-out: GI
[41] = Growth inhibition of african green monkey Vero cells assessed as [3H]thymidine incorporation at 3.125 uM after 3 days by scintillation counting; assay type: cell-based; conditions: chlorocebus sabaeus, read-out: GI
WISH [42] = assay: Growth inhibition of human WISH cells assessed as [3H]thymidine incorporation at 3.125 uM after 3 days by scintillation counting; assay type: functional; conditions: read-out: GI

Row | Structure (SMILES) | inhibition of growth at 50 µM (Calu-1 [2]) [%] | inhibition of growth at 25 µM (Calu-1 [3]) [%] | inhibition of growth at 12.5 µM (Calu-1 [4]) [%] | inhibition of growth at 6.25 µM (Calu-1 [5]) [%] | IC50 (Calu-1 [6]) [µM] | inhibition of growth at 50 µM (HeLa [8]) [%] | inhibition of growth at 25 µM (HeLa [9]) [%] | inhibition of growth at 12.5 µM (HeLa [10]) [%] | inhibition of growth at 6.25 µM (HeLa [11]) [%] | IC50 (HeLa [12]) [µM] | IC50 (K562 [14]) [µM] | inhibition of growth at 50 µM (Raji [16]) [%] | inhibition of growth at 25 µM (Raji [17]) [%] | inhibition of growth at 12.5 µM (Raji [18]) [%] | inhibition of growth at 6.25 µM (Raji [19]) [%] | IC50 (Raji [20]) [µM] | inhibition at 72 h, 50 µM [22] [%] | inhibition at 72 h, 25 µM [23] [%] | growth inhibition (GI) (Vero [24]) [%] | inhibition at 72 h, 6.25 µM [25] [%] | other results
1 | Cc1cc(O)c2c(c1)C(=O)c1cc(O)cc(O)c1C2=O [EMODIN] | 100 | 100 | 60.6 | 49.4 | 6.25 | 100 | 78.3 | 41.9 | 24.7 | 15.6 | > 100 | 47.2 | 45.8 | 41.2 | 0.3 | 43.8 | 64.4 | 26.7 | 13.7 | 3.3 | inhibition of growth at 100 µM (Calu-1 [1]): 100%; inhibition of growth at 100 µM (HeLa [7]): 100%; inhibition of growth at 100 µM (K562 [13]): 29.5%; inhibition of growth at 100 µM (Raji [15]): 100%; inhibition at 72 h, 100 µM [21]: 69.1%; IC50 (Vero [26]): 40 µM; inhibition of growth at 100 µM (WISH [27]): 80.7%; inhibition of growth at 50 µM (WISH [28]): 63.3%; inhibition of growth at 25 µM (WISH [29]): 61.9%; inhibition of growth at 12.5 µM (WISH [30]): 22%; inhibition of growth at 6.25 µM (WISH [31]): 8.7%; IC50 (WISH [32]): 28.8 µM
2 | Cc1cc(O)c2c(c1)C(=O)c1c(c(O)cc(O)c1-c1c(O)cc(O)c3c1C(=O)c1cc(C)cc(O)c1C3=O)C2=O [SKYRIN] | 100 | 100 | 24.9 | 20.6 | 15.5 | 100 | 100 | 55 | 27 | 11.3 | 27.3 | 100 | 82.1 | 48.1 | 36.8 | 12.3 | 100 | 70.5 | 34.8 | 23.1 | inhibition of growth at 3.125 µM (Calu-1 [33]): 14.3%; inhibition of growth at 3.125 µM (HeLa [34]): 5.8%; inhibition of growth at 50 µM (K562 [35]): 100%; inhibition of growth at 25 µM (K562 [36]): 50.6%; inhibition of growth at 12.5 µM (K562 [37]): 33.5%; inhibition of growth at 6.25 µM (K562 [38]): 22.2%; inhibition of growth at 3.125 µM (K562 [39]): 29.7%; inhibition of growth at 3.125 µM (Raji [40]): 33.8%; inhibition at 72 h, 3.125 µM [41]: 19.9%; IC50 (Vero [26]): 18.3 µM; inhibition of growth at 50 µM (WISH [28]): 100%; inhibition of growth at 25 µM (WISH [29]): 60%; inhibition of growth at 12.5 µM (WISH [30]): 37.8%; inhibition of growth at 6.25 µM (WISH [31]): 23.4%; inhibition of growth at 3.125 µM (WISH [42]): 24.7%; IC50 (WISH [32]): 21.3 µM
